Counter-ions that a name gives are not always drawn.
What was measured:
[1] = tested on: male C57Bl/6 mice; experiment: Acute in vivo food intake test in mice; conditions: high caloric diet, 100 mg/kg/day oral gavage in two halves
Protocol: 3. Acute in vivo Food Intake Test in Mice
The studies were carried out in individually housed male C57Bl/6 mice (n=8 per group). The mice were kept on an inverted 12/12 h light/dark cycle (lights on 22:00). They were allowed food (high caloric diet) and water ad libitum. Food intake and water consumption was measured daily. The test compound of Formula I was suspended in 1% methylcellulose in water and 2% (v/v) of Poloxamer 188 (Lutrol F68®) and administered by oral gavage at a dose of 100 mg/kg/day.
In the test model described above, the test substances caused a decrease of the animals' 24 h food intake to the percentages of food intake when compared to control as given in table 3 below.

[2] = tested on: dietary obese female Wistar rats; experiment: Chronic influence on food and water intake and body weight gain in vivo (carcass composition, plasma parameters); design: species or system rat; conditions: 28 days, mean ± SEM; for Plasma glucose / Plasma insulin / Plasma leptin: plasma day 29
Protocol: 4. Chronic Influence on Food and Water Intake and Body Weight Gain in vivo
Female Wistar rats (weight range 250-300 g; Charles River, Margate, Kent) were housed in pairs in polypropylene cages with solid floors and sawdust bedding at a temperature of 21±4° C. and 55±20% humidity. Animals were maintained on a reverse phase light-dark cycle (lights off for 8 hours from 10.00-18.00 h) during which time the room was illuminated by red light. Animals had free access to powdered high fat diet (VRF1 plus 20% lard), ground chocolate, ground peanuts and tap water at all times. The three different diets were contained in separate glass feeding jars with aluminium lids (Solmedia Laboratory Suppliers, Romford, Essex). […] Animals were housed in pairs for twelve weeks. At least two weeks before the start of the baseline readings, animals were housed individually in polypropylene cages with wire grid floors to enable the food intake of each rat to be recorded. Polypropylene trays with cage pads were placed beneath each cage to detect any food spillage.
At the start of the study, animals were weighed (to the nearest 0.1 g using an electronic top-pan balance) and allocated into 6 weight-matched treatment groups, each containing 10 animals. Following a 7 day baseline run-in period, during which time all animals were dosed orally once a day with vehicle (1% Tylose MH50, 0.1% poloxamer 188), rats were given vehicle or test compound of Formula I for 28 days as described in Table 4 below: […]
The test substance of example 2 was suspended in 1% Tylose MH50, 0.1% poloxamer 188 and administered by oral gavage (2 ml/kg). All dosing occurred at the onset of the 8 hours dark period (spanning the period immediately before and after lights out). The second treatments were given 4 hours after the first. Rats, feeding jars and water bottles were weighed (to the nearest 0.1 g) every day at the time of administration of vehicle or test substance. At each reading, the tray below each cage was examined for spilt food, which was returned to the appropriate jar before weighing. However, spillage of food from the feeding jars was negligible. Variations in body weight and energy levels of the different types of food were accounted for by expressing the food intake results in terms of kJ/kg rat weight. Water intake results were expressed in g/kg.
Animals were killed at the end of the study (by CO2 to minimize any fluid loss) on day 29 and blood samples (5 ml whole blood/animal) were collected by cardiac puncture. Plasma was separated by centrifugation and stored at −75° C. until analysis. Following blood collection carcasses were weighed, frozen and stored at −75° C. for body composition analysis. Body fat, protein, water and ash levels of the carcasses were determined using standard chemical analysis techniques. Only fat, protein, water and ash content were measured as other components (mainly carbohydrate) form less than 2% of total body composition.
Carcasses were individually milled at the temperature of liquid nitrogen, mixed and two representative samples taken. Carcass water was determined by freeze-drying the samples to constant weight. Carcass fat was determined on the freeze-dried samples using a modified Soxhlet extraction protocol (petroleum ether at 40-60° C.) with a Foss Soxtec® HT2 system (Foss UK Ltd, Wheldrake, UK) according to the manufacturers recommended protocol. Carcass protein was determined using a micro-Kjeldahl procedure on the freeze-dried samples using a Foss 2012® digestion block and Foss 2200® distilling unit (Foss UK Ltd). Residual carcass ash was determined by firing the freeze-dried samples at high temperatures using a muffle ashing furnace. Repeat determinations of the chemical analysis parameters were performed as necessary (e.g. if the duplicate samples differed by more than 1%).

[3] = tested on: male fatty Zucker rats; experiment: In vivo oral glucose tolerance test in the rat; conditions: 100 mg/kg/day oral gavage
Protocol: 2. In vivo Oral Glucose Tolerance Test in the Rat
The studies were carried out in individually housed male fatty Zucker rats (n=10 per group) weighing ca. 250-500 g. The rats were kept on a normal 12/12 h light/dark cycle (lights on 07.00) and they were allowed food (lab chow) and water ad libitum except for during experiments, when they were fasted overnight before the glucose challenge.
The test substances of Formula I were suspended in 2% polyethylenglycol (=PEG) 1% carboxymethylcellulose and administered by oral gavage at a dose of 100 mg/kg/day; ⅓ of the dose (1 ml/kg, 33 mg/ml) was administered at 08.30-09.30 h; the remaining […] (2 ml/kg; 33 mg/ml) was administered between 16.00-17.00 h and the last ⅓ dose was given the following morning. Control animals received only the vehicle. On the day of the test, 45 min after the final dose of test substance/vehicle a blood sample (0 min) was taken (tail vein) immediately after which the rats received an oral glucose challenge (1.25 g/kg; 118 mg/ml). Further blood samples were taken at 30, 60, 90, 120 min after the glucose challenge. The second drop of blood of each sample was placed on a glucose test strip before this was placed in the glucose meter for determination of blood glucose level (Life Scan One Touch Ultra Blood® Glucose Meter and Life Scan One Touch Ultra® Test Strips; Life Scan Inc.; Milpitas, Calif. 95035). The remaining blood of each sample was spun and the plasma was frozen at −80° C. before analysis for insulin (1-2-3 Rat Insulin ELISA kit, Alpco Diagnostics).
The values obtained were plotted and the AUC for test compounds and vehicle (for glucose and insulin) were determined after which the percent control AUC, percent control maximum value and % control baseline were estimated, to determine the influence of the test compound on the glucose tolerance.

[4] = 30 mg/kg po twice daily (0 h, 4 h)
[5] = 50 mg/kg po twice daily (0 h, 4 h)

Structure (SMILES): NS(=O)(=O)N1CCN(c2ccccc2)CC1 [Example 2, N-Sulfamoyl-N′-phenylpiperazine hydrochloride]
- 24 h food intake [1]: 68 % of control
- Carcass ash, mean percent final body weight [2, 4]: 3.24 ± 0.12%
- Carcass ash, mean weight per rat [2, 4]: 12.13 ± 0.48 g
- Carcass fat, mean percent final body weight [2, 4]: 22.8 ± 1.0 %
- Carcass fat, mean weight per rat [2, 4]: 87.9 ± 3.8 g
- Carcass protein, mean percent final body weight [2, 4]: 17.4 ± 0.3*° %
- Carcass protein, mean weight per rat [2, 4]: 64.8 ± 1.2 g
- Carcass water, mean percent final body weight [2, 4]: 55.2 ± 0.8 %
- Carcass water, mean weight per rat [2, 4]: 205.8 ± 3.1 g
- Carcass weight, mean per rat [2, 4]: 375.4 ± 4.8 g
- Plasma glucose ([2]; 30 mg/kg po twice daily): 8.6 ± 0.5 mM
- Plasma insulin ([2]; 30 mg/kg po twice daily): 1.53 ± 0.33 ng/mL
- Plasma leptin ([2]; 30 mg/kg po twice daily): 68.8 ± 9.4 ng/mL
- Carcass ash, mean percent final body weight [2, 5]: 3.14 ± 0.1%
- Carcass ash, mean weight per rat [2, 5]: 11.38 ± 0.29 g
- Carcass fat, mean percent final body weight [2, 5]: 22.3 ± 1.8 %
- Carcass fat, mean weight per rat [2, 5]: 83.6 ± 6.9 g
- Carcass protein, mean percent final body weight [2, 5]: 17.3 ± 0.4*° %
- Carcass protein, mean weight per rat [2, 5]: 62.8 ± 1.3 g
- Carcass water, mean percent final body weight [2, 5]: 55.7 ± 1.2 %
- Carcass water, mean weight per rat [2, 5]: 202.2 ± 3.6 g
- Carcass weight, mean per rat [2, 5]: 365.6 ± 3.8 g
- Plasma glucose ([2]; 50 mg/kg po twice daily): 7.9 ± 0.5 mM
- Plasma insulin ([2]; 50 mg/kg po twice daily): 1.40 ± 0.41 ng/mL
- Plasma leptin ([2]; 50 mg/kg po twice daily): 58.8 ± 11.6 ng/mL
- Glucose Baseline ([3]; 0 min sample before glucose challenge): 82 % of control
- Insulin Baseline ([3]; 0 min sample before glucose challenge, plasma): 85 % of control
- Glucose Maximal effect ([3]; oral glucose challenge 1.25 g/kg): 78 % of control
- Glucose AUC ([3]; oral glucose challenge 1.25 g/kg, 0-120 min): 84 % of control
- Insulin AUC ([3]; oral glucose challenge 1.25 g/kg, 0-120 min, plasma): 95 % of control
- Insulin Maximal effect ([3]; oral glucose challenge 1.25 g/kg, plasma): 95 % of control
